# Results as given in US7723064B2, “Methods for monitoring patients for efficacy of an antiplatelet therapy regimen” (Siemens Healthcare Diagnostics Inc., priority 2004, dated 2010).
# Assays:
# [1] = tested on: CD62P (P-selectin) expression on platelets; assay: Platelet CD62P (P-selectin) expression by fluorescence flow cytometry in whole blood of patients before and after anti-platelet therapy and PTCA; format: in vivo, human; settings: for mean CD62P expression (percent positive events): Clopidogrel patients n=29, 300 mg loading dose and PTCA, baseline 9.5±3.3%; for mean CD62P expression (percent positive events) / CD62P percent positive expression / CD62P expression (percent positive events): mean±SE; for CD62P percent positive expression: patients with high baseline platelet activation, baseline 23.4±6.6%, p<0.01; for CD62P expression (percent positive events): abciximab patients n=15, 0.25 mg/kg bolus plus infusion and PTCA, baseline 9.3±4.0%
# Description: (§1) Patients. A total of 44 patients who underwent elective percutaneous coronary angioplasty and stenting were evaluated. The study was approved by the institutional committee on human research. Patients were enrolled in the study after informed consent had been obtained. Their baseline variables including age, gender, smoking history, risk factors, antecedents and medication were documented. These patients received either a loading dose of Clopidogrel (300 mg) before the beginning of the PTCA procedure followed by 75 mg daily for 1 month or intravenously a 0.25 mg/kg, bolus of Abciximab before the beginning of the PTCA procedure followed by a 0.125 μg/kg/mn infusion for 12 h.
# (§2) Blood collection. Blood was drawn with a 21-gauge needle into EDTA (5 mM) tubes, mixed immediately with the anticoagulant and avoiding frothing during the mixing procedure. The first 1-2 ml of blood were discarded to avoid the effects of traces of thrombin generated during venipuncture. Serum was collected for CRP measurements. Whole blood specimens for measurement of the ADVIA® 120 Hematology System platelet parameters and flow cytometry analysis were taken prior to baseline, 2 hours, and 24 hours after administration of anti-platelet therapy and PTCA. For platelet activation measurements, all specimens were processed within 1 h after blood collection.
# Fluorescence flow cytometry analysis. Whole blood samples were fixed with methanol-free paraformaldehyde (final concentration 0.5%). Fixed blood (5 μl) was incubated at room temperature for 15 min in the dark with monoclonal antibody CD61a-FITC. (10 μl) to identify the platelets and CD62P-PE (10 μl) to measure the expression of P-selectin. Platelets labeled with FITC or PE-conjugated isotype control antibody were used as control for nonspecific staining.
# Samples were diluted to 1 ml with PBS. FACScan calibration and compensation were performed as recommended by the manufacturer. Five thousand (5,000) CD61a positive events were acquired on the FACScan flow cytometer (Becton Dickinson, Franklin Lakes, N.J.) equipped with Lysis II software. Data analysis was performed using a threshold based on the FITC-fluorescence correlating to the platelet specific binding of CD61a-FITC antibodies. A gate was drawn around the fluorescent platelet population. The CD61a-FITC labeled platelets that were also positive for PE-conjugated activation marker antibody (CD62P) was quantitated and presented as percentage of positive events.
# (§3) Patients. A total of 44 patients who underwent elective percutaneous coronary angioplasty and stenting were evaluated Patients were enrolled in the study after informed consent had been obtained. Their baseline variables including age, gender, smoking history and medication were documented. The treatments were assigned based on the angiographic characteristics. Patients with presence of thrombus and high risk vessel disease were assigned to Abciximab. Two thirds (n=29) of patients received a loading dose of Clopidogrel (300 mg) before the beginning of the PTCA procedure followed by 75 mg daily for 1 month. One third (n=15) of patients received a 0.25 mg/kg bolus of Abciximab intravenously before the beginning of the PTCA procedure followed by a 0.125 μg/kg/min infusion for 12 h. These patients also received Clopidogrel a designated number of hours after PTCA.
# Collection of blood. Blood was drawn with a 21-gauge needle into EDTA (5 mM) tubes, mixed immediately with the anticoagulant, and avoiding frothing during the mixing procedure. The first 1-2 ml of blood were discarded to avoid the effects and traces of thrombin generated during venipuncture. Universal precautions were taken at all times during phlebotomy. […]
# [2] = tested on: platelets (platelet activation); assay: Mean platelet component concentration (MPC, platelet density) on the ADVIA 120 Hematology System in whole blood of patients before and after anti-platelet therapy and PTCA; format: in vivo, human; settings: for mean MPC level: Clopidogrel patients n=29, baseline 27.8±0.4 g/dL; for mean MPC level / MPC level: mean±SE; for MPC level: abciximab patients n=15, baseline 28.0±0.3 g/dL
# Description: as §1, §2
# Bayer ADVIA 120 automated hematology system platelet density measurement. The two-dimensional platelet method is based on the analysis of platelets in whole blood by flow cytometry using the ADVIA 120. The system was standardized and calibrated as per the manufacturer's instructions. The ADVIA 120 Hematology System was quality-controlled using TESTpoint Hematology control reagents (Bayer HealthCare, LLC, Tarrytown, N.Y.). The whole blood specimens anticoagulated with EDTA were processed within 1 h after specimen collection. […] See Macey M. G. et al., Cytometry (1999) 38:250-255; Chapman E. S. et al., Thromb. Haemost. (2003) 89:1004-1015; Ahnadi C. E. et al., Thromb. Haemost (2003) 90:940-948. In this study, MPC determinations were acquired as a measure of platelet activation at baseline, 2 hours, and 24 hours after anti-platelet drug therapy.
# as §3
# Collection of blood. Blood was drawn with a 21-gauge needle into EDTA (5 mM) tubes, mixed immediately with the anticoagulant, and avoiding frothing during the mixing procedure. The first 1-2 ml of blood were discarded to avoid the effects and traces of thrombin generated during venipuncture. Universal precautions were taken at all times during phlebotomy. Whole blood specimens for measurement of the ADVIA 120 System platelet parameters and CD62P-PE flow cytometry analysis were taken prior to baseline, 2 h, 5 h, and 24 h after administration of a loading charge of Clopidogrel and percutaneous transluminal coronary angioplasty (PTCA), and prior to, 10 min, 2 h, and 24 h after administration of the Abciximab bolus and PTCA. All specimens were processed within 1 h after blood collection.
# Bayer ADVIA 120 Automated Hematology System platelet density measurement. […]
# [3] = tested on: platelet activation markers CD62, CD63, and PAC-1; settings: after stimulation with ADP or thrombin; healthy subjects and patients after myocardial infarction; cited from earlier work
molecule,measurement,setting,value
CC(=O)Oc1ccccc1C(=O)O [aspirin],platelet inhibition effect,"[1]; patients on aspirin therapy before admission, by the classic (CD62P) or new (MPC) platelet activation measurements",not demonstrated
COC(=O)[C@H](c1ccccc1Cl)N1CCc2sccc2C1 [Clopidogrel],mean CD62P expression (percent positive events),[1]; 2 h,3.1±1.8%
same,mean CD62P expression (percent positive events),[1]; 5 h,1.2±0.7%
same,mean CD62P expression (percent positive events),[1]; 24 h,1.8±1.1%
same,platelet activation as determined by both CD62P decrease and increasing MPC,[1]; group of patients with the greatest baseline platelet activation,significant reduction
same,CD62P percent positive expression,[1]; 2 h,2.0±1.0%
same,CD62P percent positive expression,[1]; 5 h,0.3±0.1%
same,CD62P percent positive expression,[1]; 24 h,1.5±0.5%
same,mean MPC level,[2]; 2 h,28.4 ± 0.3 g/dL
same,mean MPC level,[2]; 5 h,28.9 ± 0.2 g/dL
same,mean MPC level,[2]; 24 h,28.7 ± 0.2 g/dL
same,MPC value,"[2]; patients with high baseline platelet activation, 2 h, baseline 25.7±0.8 g/dL, p<0.01",28.0 ± 0.5 g/dL
same,MPC value,"[2]; patients with high baseline platelet activation, 5 h, baseline 25.7±0.8 g/dL, p<0.01",28.8 ± 0.3 g/dL
same,MPC value,"[2]; patients with high baseline platelet activation, 24 h, baseline 25.7±0.8 g/dL, p<0.01",28.4 ± 0.3 g/dL
same,"expression of platelet activation markers CD62, CD63, and PAC-1",[3],suppresses expression
"Abciximab (antibody, chains of the INN, looked up, V domains shown, Fab, the monoclonal antibody, abciximab) VH: EVQLQQSGTVLARPGASVKMSCEASGYTFTNYWMHWVKQRPGQGLEWIGAIYPGNSDTSYIQKFKGKAKLTAVTSTTSVYMELSSLTNEDSAVYYCTLYDGYYVFAYWGQGTLVTVSA VL: EIVLTQSPVTLSVTPGDSVSLSCRASRDISNNLHWFQQTSHESPRLLIKYASQSMSGIPSRFSGSGSGTDFTLSINSVETEDFGMYFCQQTNSWPYTFGGGTKLEIK",CD62P expression (percent positive events),[1]; 2 h,7.9±5.4%
same,CD62P expression (percent positive events),[1]; 24 h,0.7±0.3%
same,CD62P-PE value,"[1]; one patient, 2 hours after Abciximab and angioplasty, baseline 4.2%, complications of pacemaker installation",75%
same,MPC level,[2]; 10 min,27.9 ± 0.3 g/dL
same,MPC level,[2]; 2 h,28.0 ± 0.4 g/dL
same,MPC level,[2]; 24 h,28.4 ± 0.2 g/dL
same,MPC value,"[2]; one patient, 2 hours after Abciximab and angioplasty, baseline 28.3 g/dL, complications of pacemaker installation",22.8 g/dL
